Test results as given in US10370364B1, “Substituted chromenes for treatment of fibrosis or non-alcoholic steatohepatitis” (OSTEONEUROGEN INC., priority 2018, dated 2019).

Tests used:
[1] = tested on: C57BL/6 mice; test: Bleomycin-induced pulmonary fibrosis animal model; type: in vivo; details: for Mean Collagen % (histopathology collagen morphometry, left lung): Sirius red
Source text: 5-week-old male C57BL/6 mice (weighed 18.2 to 20.5 g) (KOATECH, Korea) were used as experimental animals and divided into several groups, each consisting of 5 animals.
The experimental animals were housed in a housing box having a size of 369 L×156 W×132H (mm) (EU, USA, UK GL compliance) made of a polysulfone material in a SPF (Specific Pathogen Free) and BSL (Bio Safety Level) 2 grade facility. The number of animals in each housing box was 2 to 3 during the period of quarantine and acclimatization and was also 2 to 3 during the experimental period, and the housing conditions were set to a temperature of 22±2° C., a relative humidity of 50.0±15.0%, a ventilation cycle of 10 to 20 times/hr, a light-dark cycle (a photoperiod) of 12 hr/day (07:00 to 19:00), and an illumination intensity of 150 to 300 Lux.
Pulmonary fibrosis was induced by injecting a bleomycin solution directly into the lungs via the trachea according to the intratracheal instillation (IT) method of Kremer, Laxer and Berkman et al. Specifically, C57BL/6J mice were anesthetized through inhalation with 70% N2O and 30% O2 gas and 1.5% isoflurane, and the skin of the anterior neck thereof was excised and the organs under the muscle thereof were exposed and then carefully excised using ophthalmic surgical scissors. 50 μL of a solution of bleomycin in distilled water was injected directly into the lungs all at once via the excised organ by use of a 1 mL syringe fitted with a 19-gauge injection needle having a blunt tip. Immediately after the injection, the excised skin of the anterior neck was sutured and the mice were allowed to recover from the anesthetic, and then housed in a general housing cage. The administration of bleomycin was performed using a visual instillobot, and bleomycin-HCl 40 μg/50 μL was administered once and a pulmonary fibrosis induction period of 12 days was set.
The compound of the present invention was used after dissolution in 30% HPCD aqueous solution (Formulation Example 5), and the dose for each individual was calculated based on the recent body weight thereof. 12 Days after the administration of bleomycin, the compound of the present invention was administered once a day (5 times a week) for 2 weeks. As a control, pirfenidone which is a therapeutic agent for idiopathic pulmonary fibrosis was administered in the same manner.
On 15 days after administration of the compound, the mice were sacrificed, and then the right lung of each mouse was dissected and the weight thereof was measured. […] In particular, it is noted that the inhibitory effect of the compound in the group administered at 10 mpk was the highest compared to that in the group administered at 50 or 100 mpk and was also higher than that in the group administered with pirfenidone 100 mpk.
The amounts of hydroxyproline (HP) and collagen in the dissected right lung were measured using a known method.
Histopathology collagen morphometry of the dissected left lung tissue was performed using a known method (calculating the area of collagen in an optical image obtained by Sirius red staining of the lung tissue sample).
The pathological conditions of the left lung tissue dissected using a known method were examined by H&E and Sirius Red staining. […] In particular, it is noted that the inhibitory effect of the compound in the group administered at 10 mpk was the highest compared to that in the groups administered at other concentrations.
In order to examine the effect of each treatment in this Experiment on the liver, the liver of each of the sacrificed mice was dissected, and the pathological conditions of the liver tissue were examined by H&E staining.

[2] = biological target: T1, CYP2C9 (Homo sapiens, UniProt P11712)
[3] = biological target: T1, CYP2C9; test: CYP450 inhibition, CYP2C9
[4] = tested on: α-SMA (alpha-smooth muscle actin); test: α-SMA expression in ONGHEPA1 cells by immunofluorescent staining; type: cell-based, rat; details: TGF-β plus compound 50 μM
Source text: In addition, in order to examine whether the above-described effect would be attributable to the effect against epithelial-mesenchymal transition (EMT) (hereinafter referred to as “EMT”), the expression of α-SMA (alpha-smooth muscle actin), which is a representative marker of EMT, in the cells of each test group, was examined by immunofluorescent staining and nuclear staining (DAPI staining).

[5] = tested on: Vimentin; test: Vimentin expression in A549 cells by real-time PCR; type: cell-based, human; details: A549, TGF-β plus compound
Experimental: In addition, in order to examine whether the effect as described above would be attributable to the effect against EMT, the expression patterns of Snail and Vimentin, which are representative markers of EMT, in the cells of each test group, were analyzed by real-time PCR.

[6] = biological target: CYP3A4 (Homo sapiens, UniProt P08684)
CYP3A4, sequence (P08684 whole entry): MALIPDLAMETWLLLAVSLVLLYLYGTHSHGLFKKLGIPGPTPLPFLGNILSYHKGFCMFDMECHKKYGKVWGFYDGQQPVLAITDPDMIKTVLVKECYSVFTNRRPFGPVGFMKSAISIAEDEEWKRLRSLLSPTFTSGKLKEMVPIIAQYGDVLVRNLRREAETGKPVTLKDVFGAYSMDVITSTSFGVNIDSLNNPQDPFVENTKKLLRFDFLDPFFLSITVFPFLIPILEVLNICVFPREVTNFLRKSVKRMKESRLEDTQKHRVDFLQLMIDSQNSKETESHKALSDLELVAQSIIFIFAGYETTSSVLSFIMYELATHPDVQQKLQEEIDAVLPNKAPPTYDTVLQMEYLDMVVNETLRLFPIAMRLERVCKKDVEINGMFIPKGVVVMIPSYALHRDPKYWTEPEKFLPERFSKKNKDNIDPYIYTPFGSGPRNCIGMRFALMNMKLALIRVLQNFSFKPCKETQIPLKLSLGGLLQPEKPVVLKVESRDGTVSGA

T1 sequence (P11712 whole entry): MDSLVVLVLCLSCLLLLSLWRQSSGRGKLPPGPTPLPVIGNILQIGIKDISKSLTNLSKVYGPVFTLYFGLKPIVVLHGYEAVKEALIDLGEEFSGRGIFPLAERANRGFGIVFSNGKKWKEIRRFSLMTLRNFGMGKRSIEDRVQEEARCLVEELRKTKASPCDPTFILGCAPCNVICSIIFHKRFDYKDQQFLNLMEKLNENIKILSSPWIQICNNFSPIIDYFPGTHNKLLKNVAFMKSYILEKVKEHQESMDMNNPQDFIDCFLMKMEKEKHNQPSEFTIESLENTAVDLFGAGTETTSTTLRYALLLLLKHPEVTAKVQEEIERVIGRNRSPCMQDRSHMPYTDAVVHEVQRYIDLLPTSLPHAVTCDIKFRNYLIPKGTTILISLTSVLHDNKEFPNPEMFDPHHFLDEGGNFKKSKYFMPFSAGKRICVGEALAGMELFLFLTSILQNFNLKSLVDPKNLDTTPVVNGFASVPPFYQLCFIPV

## COc1ccc(-c2cc(=O)c3c(O)c(OC)c(OCCN4CCNC(=O)C4)cc3o2)cc1OC [Compound 1, 4-(2-((2-(3,4-dimethoxyphenyl)-5-hydroxy-6-methoxy-4-oxo-4H-chromen-7-yl)oxy)ethyl)piperazin-2-one]
[1]; 10 mpk PO
  Protection Collagen %: 59%
  Mean Collagen % (histopathology collagen morphometry, left lung): 2.8%
[1]; 10 mpk compared to 50 or 100 mpk and pirfenidone 100 mpk
  inhibitory effect on right lung weight, comparison of dose groups: the highest
[1]; 10 mpk compared to other concentrations
  inhibitory effect on lung fibrosis symptoms, comparison of dose groups: the highest
[1]; 50 mpk PO
  Protection Collagen %: 66%
  Mean Collagen % (histopathology collagen morphometry, left lung): 2.4%
[1]; 100 mpk PO
  Protection Collagen %: 59%
  Mean Collagen % (histopathology collagen morphometry, left lung): 2.8%
[1]; bleomycin mice, 10-100 mpk PO
  amount of collagen in right lung: significantly inhibited this increase
  amount of hydroxyproline (HP) in right lung: significantly inhibited this increase
  fibrosis symptoms of left lung tissue, H&E and Sirius Red staining: significantly inhibited such fibrosis symptoms
  increase of collagen in left lung tissue, morphometry (in words): significantly inhibited this increase
[1]; bleomycin mice, 10-100 mpk PO in 30% HPCD, once a day 5 times a week for 2 weeks
  increase in the right lung weight: significantly inhibited
[1]; bleomycin mice, 50 mpk
  pathological condition of liver tissue, H&E staining: showed hepatotoxic symptoms
[1]; bleomycin mice, 100 mpk
  pathological condition of liver tissue, H&E staining: showed hepatotoxic symptoms
[1]; group administered at 100 mpk
  inhibitory effect on collagen, comparison of dose groups: highest
  inhibitory effect on hydroxyproline, comparison of dose groups: highest
[1]; mouse, in vivo, 10 mg/kg
  pathological condition of liver tissue, H&E staining: showed the same condition as that of normal liver tissue
[2]
  inhibitory activity against CYP2C9 (in words): slight inhibitory activity
[3]
  IC50: 5.54 µM
[4]
  expression of α-SMA: inhibited
[5]
  expression of Vimentin: significantly inhibited
[6]
  inhibitory activity against CYP3A4 (in words): little or very low inhibitory activity
